In ChEMBL document CHEMBL5331108, “Design and Synthesis of 4-Fluorophenyl-5-methylene-2(5H)-furanone Derivatives as Potent Quorum Sensing Inhibitors” (J Med Chem, 2023):
Values after ≈ are worked out from the molar mass of the structure shown.

system: Bacillus subtilis; experiment: Antibacterial activity against penicillin-susceptible Bacillus subtilis ATCC9372 assessed as inhibition of bacterial growth incubated for 20 hrs by CLSI protocol based microdilution method; type: functional

| Structure (SMILES) | MIC [µg/mL] |
| --- | --- |
| C=C1OC(=O)C(CNC(=O)c2ccc(C)cc2)=C1c1ccccc1 | > 512 |
| C=C1OC(=O)C(CNC(=O)CCCCCCC)=C1c1ccc(F)cc1 | > 512 |
| C=C1OC(=O)C(CNC(=O)c2cccc(F)c2)=C1c1ccc(F)cc1 | > 512 |
| C=C1OC(=O)C(CNC(=O)c2ccccc2Br)=C1c1ccc(F)cc1 | 16 (≈ 39.8 µM) |
| C=C1OC(=O)C(CNC(=O)CCCCC)=C1c1ccc(F)cc1 | 256 (≈ 807 µM) |
| C=C1C(c2ccc(F)cc2)=C(CNC(=O)c2ccc(C)cc2)C(=O)N1C1CCCC1 | > 512 |
| C=C1OC(=O)C(CNC(=O)c2cccc(Br)c2)=C1c1ccc(F)cc1 | > 512 |
| C=C1C(c2ccc(F)cc2)=C(CNC(=O)c2ccc(C)cc2)C(=O)N1CC | > 512 |
| C=C1OC(=O)C(CNC(=O)c2ccc(C)cc2)=C1c1cccc(C(F)(F)F)c1 | > 512 |
| C=C1OC(=O)C(CNC(=O)CCCCCCCCC)=C1c1ccc(F)cc1 | > 512 |
| C=C1OC(=O)C(CNC(=O)c2ccccc2Cl)=C1c1ccc(F)cc1 | > 512 |
| C=C1OC(=O)C(CNC(=O)c2ccc(C)cc2)=C1c1ccccc1Cl | > 512 |
| C=C1C(c2ccc(F)cc2)=C(CNC(=O)c2ccc(C)cc2)C(=O)N1CCCC | > 512 |
| C=C1OC(=O)C(CNC(=O)c2ccc(C)cc2)=C1c1ccc(Br)cc1 | > 512 |
| C=C1C(c2ccc(F)cc2)=C(CNC(=O)c2ccc(C)cc2)C(=O)N1c1cccc(Cl)c1 | > 512 |

system: Bacillus pumilus; experiment: Antibacterial activity against penicillin-susceptible Bacillus pumilus CMCC63202 assessed as inhibition of bacterial growth incubated for 20 hrs by CLSI protocol based microdilution method; type: functional

| Structure (SMILES) | MIC [µg/mL] |
| --- | --- |
| C=C1OC(=O)C(CNC(=O)c2ccc(C)cc2)=C1c1ccccc1 | > 512 |
| C=C1OC(=O)C(CNC(=O)CCCCCCC)=C1c1ccc(F)cc1 | > 512 |
| C=C1OC(=O)C(CNC(=O)c2cccc(F)c2)=C1c1ccc(F)cc1 | > 512 |
| C=C1OC(=O)C(CNC(=O)c2ccccc2Br)=C1c1ccc(F)cc1 | > 512 |
| C=C1OC(=O)C(CNC(=O)CCCCC)=C1c1ccc(F)cc1 | 256 (≈ 807 µM) |
| C=C1C(c2ccc(F)cc2)=C(CNC(=O)c2ccc(C)cc2)C(=O)N1C1CCCC1 | 512 (≈ 1270 µM) |
| C=C1OC(=O)C(CNC(=O)c2cccc(Br)c2)=C1c1ccc(F)cc1 | > 512 |
| C=C1C(c2ccc(F)cc2)=C(CNC(=O)c2ccc(C)cc2)C(=O)N1CC | 512 (≈ 1400 µM) |
| C=C1OC(=O)C(CNC(=O)c2ccc(C)cc2)=C1c1cccc(C(F)(F)F)c1 | > 512 |
| C=C1OC(=O)C(CNC(=O)CCCCCCCCC)=C1c1ccc(F)cc1 | > 512 |
| C=C1OC(=O)C(CNC(=O)c2ccccc2Cl)=C1c1ccc(F)cc1 | > 512 |
| C=C1OC(=O)C(CNC(=O)c2ccc(C)cc2)=C1c1ccccc1Cl | > 512 |
| C=C1C(c2ccc(F)cc2)=C(CNC(=O)c2ccc(C)cc2)C(=O)N1CCCC | > 512 |
| C=C1OC(=O)C(CNC(=O)c2ccc(C)cc2)=C1c1ccc(Br)cc1 | > 512 |
| C=C1C(c2ccc(F)cc2)=C(CNC(=O)c2ccc(C)cc2)C(=O)N1c1cccc(Cl)c1 | 512 (≈ 1150 µM) |

system: Staphylococcus aureus; experiment: Antibacterial activity against erthromycin-susceptible Staphylococcus aureus ATCC25923 assessed as inhibition of bacterial growth incubated for 20 hrs by CLSI protocol based microdilution method; type: functional

| Structure (SMILES) | MIC [µg/mL] |
| --- | --- |
| C=C1OC(=O)C(CNC(=O)c2ccc(C)cc2)=C1c1ccccc1 | > 512 |
| C=C1OC(=O)C(CNC(=O)CCCCCCC)=C1c1ccc(F)cc1 | > 512 |
| C=C1OC(=O)C(CNC(=O)c2cccc(F)c2)=C1c1ccc(F)cc1 | > 512 |
| C=C1OC(=O)C(CNC(=O)c2ccccc2Br)=C1c1ccc(F)cc1 | > 512 |
| C=C1OC(=O)C(CNC(=O)CCCCC)=C1c1ccc(F)cc1 | 16 (≈ 50.4 µM) |
| C=C1C(c2ccc(F)cc2)=C(CNC(=O)c2ccc(C)cc2)C(=O)N1C1CCCC1 | > 512 |
| C=C1OC(=O)C(CNC(=O)c2cccc(Br)c2)=C1c1ccc(F)cc1 | > 512 |
| C=C1C(c2ccc(F)cc2)=C(CNC(=O)c2ccc(C)cc2)C(=O)N1CC | > 512 |
| C=C1OC(=O)C(CNC(=O)c2ccc(C)cc2)=C1c1cccc(C(F)(F)F)c1 | > 512 |
| C=C1OC(=O)C(CNC(=O)CCCCCCCCC)=C1c1ccc(F)cc1 | > 512 |
| C=C1OC(=O)C(CNC(=O)c2ccccc2Cl)=C1c1ccc(F)cc1 | > 512 |
| C=C1OC(=O)C(CNC(=O)c2ccc(C)cc2)=C1c1ccccc1Cl | > 512 |
| C=C1C(c2ccc(F)cc2)=C(CNC(=O)c2ccc(C)cc2)C(=O)N1CCCC | > 512 |
| C=C1OC(=O)C(CNC(=O)c2ccc(C)cc2)=C1c1ccc(Br)cc1 | > 512 |
| C=C1C(c2ccc(F)cc2)=C(CNC(=O)c2ccc(C)cc2)C(=O)N1c1cccc(Cl)c1 | > 512 |

system: Staphylococcus aureus; experiment: Antibacterial activity against methicillin-resistant Staphylococcus aureus ATCC43300 assessed as inhibition of bacterial growth incubated for 20 hrs by CLSI protocol based microdilution method; type: functional

| Structure (SMILES) | MIC [µg/mL] |
| --- | --- |
| C=C1OC(=O)C(CNC(=O)c2ccc(C)cc2)=C1c1ccccc1 | > 512 |
| C=C1OC(=O)C(CNC(=O)CCCCCCC)=C1c1ccc(F)cc1 | > 512 |
| C=C1OC(=O)C(CNC(=O)c2cccc(F)c2)=C1c1ccc(F)cc1 | > 512 |
| C=C1OC(=O)C(CNC(=O)c2ccccc2Br)=C1c1ccc(F)cc1 | 8 (≈ 19.9 µM) |
| C=C1OC(=O)C(CNC(=O)CCCCC)=C1c1ccc(F)cc1 | 256 (≈ 807 µM) |
| C=C1C(c2ccc(F)cc2)=C(CNC(=O)c2ccc(C)cc2)C(=O)N1C1CCCC1 | 512 (≈ 1270 µM) |
| C=C1OC(=O)C(CNC(=O)c2cccc(Br)c2)=C1c1ccc(F)cc1 | > 512 |
| C=C1C(c2ccc(F)cc2)=C(CNC(=O)c2ccc(C)cc2)C(=O)N1CC | > 512 |
| C=C1OC(=O)C(CNC(=O)c2ccc(C)cc2)=C1c1cccc(C(F)(F)F)c1 | > 512 |
| C=C1OC(=O)C(CNC(=O)CCCCCCCCC)=C1c1ccc(F)cc1 | 512 (≈ 1370 µM) |
| C=C1OC(=O)C(CNC(=O)c2ccccc2Cl)=C1c1ccc(F)cc1 | > 512 |
| C=C1OC(=O)C(CNC(=O)c2ccc(C)cc2)=C1c1ccccc1Cl | > 512 |
| C=C1C(c2ccc(F)cc2)=C(CNC(=O)c2ccc(C)cc2)C(=O)N1CCCC | > 512 |
| C=C1OC(=O)C(CNC(=O)c2ccc(C)cc2)=C1c1ccc(Br)cc1 | > 512 |
| C=C1C(c2ccc(F)cc2)=C(CNC(=O)c2ccc(C)cc2)C(=O)N1c1cccc(Cl)c1 | > 512 |

system: Pseudomonas aeruginosa; experiment: Antibacterial activity against penicillin-susceptible Pseudomonas aeruginosa ATCC27853 assessed as inhibition of bacterial growth incubated for 20 hrs by CLSI protocol based microdilution method; type: functional

| Structure (SMILES) | MIC [µg/mL] |
| --- | --- |
| C=C1OC(=O)C(CNC(=O)c2ccc(C)cc2)=C1c1ccccc1 | > 512 |
| C=C1OC(=O)C(CNC(=O)CCCCCCC)=C1c1ccc(F)cc1 | > 512 |
| C=C1OC(=O)C(CNC(=O)c2cccc(F)c2)=C1c1ccc(F)cc1 | > 512 |
| C=C1OC(=O)C(CNC(=O)c2ccccc2Br)=C1c1ccc(F)cc1 | > 512 |
| C=C1OC(=O)C(CNC(=O)CCCCC)=C1c1ccc(F)cc1 | > 512 |
| C=C1C(c2ccc(F)cc2)=C(CNC(=O)c2ccc(C)cc2)C(=O)N1C1CCCC1 | > 512 |
| C=C1OC(=O)C(CNC(=O)c2cccc(Br)c2)=C1c1ccc(F)cc1 | > 512 |
| C=C1C(c2ccc(F)cc2)=C(CNC(=O)c2ccc(C)cc2)C(=O)N1CC | 64 (≈ 176 µM) |
| C=C1OC(=O)C(CNC(=O)c2ccc(C)cc2)=C1c1cccc(C(F)(F)F)c1 | > 512 |
| C=C1OC(=O)C(CNC(=O)CCCCCCCCC)=C1c1ccc(F)cc1 | > 512 |
| C=C1OC(=O)C(CNC(=O)c2ccccc2Cl)=C1c1ccc(F)cc1 | > 512 |
| C=C1OC(=O)C(CNC(=O)c2ccc(C)cc2)=C1c1ccccc1Cl | > 512 |
| C=C1C(c2ccc(F)cc2)=C(CNC(=O)c2ccc(C)cc2)C(=O)N1CCCC | > 512 |
| C=C1OC(=O)C(CNC(=O)c2ccc(C)cc2)=C1c1ccc(Br)cc1 | > 512 |
| C=C1C(c2ccc(F)cc2)=C(CNC(=O)c2ccc(C)cc2)C(=O)N1c1cccc(Cl)c1 | > 512 |

system: Escherichia coli; experiment: Antibacterial activity against penicillin-susceptible Escherichia coli ATCC25922 assessed as inhibition of bacterial growth incubated for 20 hrs by CLSI protocol based microdilution method; type: functional

| Structure (SMILES) | MIC [µg/mL] |
| --- | --- |
| C=C1OC(=O)C(CNC(=O)c2ccc(C)cc2)=C1c1ccccc1 | > 512 |
| C=C1OC(=O)C(CNC(=O)CCCCCCC)=C1c1ccc(F)cc1 | > 512 |
| C=C1OC(=O)C(CNC(=O)c2cccc(F)c2)=C1c1ccc(F)cc1 | > 512 |
| C=C1OC(=O)C(CNC(=O)c2ccccc2Br)=C1c1ccc(F)cc1 | > 512 |
| C=C1OC(=O)C(CNC(=O)CCCCC)=C1c1ccc(F)cc1 | > 512 |
| C=C1C(c2ccc(F)cc2)=C(CNC(=O)c2ccc(C)cc2)C(=O)N1C1CCCC1 | > 512 |
| C=C1OC(=O)C(CNC(=O)c2cccc(Br)c2)=C1c1ccc(F)cc1 | > 512 |
| C=C1C(c2ccc(F)cc2)=C(CNC(=O)c2ccc(C)cc2)C(=O)N1CC | > 512 |
| C=C1OC(=O)C(CNC(=O)c2ccc(C)cc2)=C1c1cccc(C(F)(F)F)c1 | > 512 |
| C=C1OC(=O)C(CNC(=O)CCCCCCCCC)=C1c1ccc(F)cc1 | > 512 |
| C=C1OC(=O)C(CNC(=O)c2ccccc2Cl)=C1c1ccc(F)cc1 | > 512 |
| C=C1OC(=O)C(CNC(=O)c2ccc(C)cc2)=C1c1ccccc1Cl | > 512 |
| C=C1C(c2ccc(F)cc2)=C(CNC(=O)c2ccc(C)cc2)C(=O)N1CCCC | > 512 |
| C=C1OC(=O)C(CNC(=O)c2ccc(C)cc2)=C1c1ccc(Br)cc1 | > 512 |
| C=C1C(c2ccc(F)cc2)=C(CNC(=O)c2ccc(C)cc2)C(=O)N1c1cccc(Cl)c1 | > 512 |

system: Pseudomonas aeruginosa; experiment: Antibacterial activity against wild type Pseudomonas aeruginosa […] CGMCC1.12483 assessed as inhibition of bacterial growth incubated for 20 hrs by CLSI protocol based microdilution method; type: functional

| Structure (SMILES) | MIC [µg/mL] |
| --- | --- |
| C=C1OC(=O)C(CNC(=O)c2ccc(C)cc2)=C1c1ccccc1 | > 512 |
| C=C1OC(=O)C(CNC(=O)CCCCCCC)=C1c1ccc(F)cc1 | > 512 |
| C=C1OC(=O)C(CNC(=O)c2cccc(F)c2)=C1c1ccc(F)cc1 | > 512 |
| C=C1OC(=O)C(CNC(=O)c2ccccc2Br)=C1c1ccc(F)cc1 | > 512 |
| C=C1OC(=O)C(CNC(=O)CCCCC)=C1c1ccc(F)cc1 | > 512 |
| C=C1C(c2ccc(F)cc2)=C(CNC(=O)c2ccc(C)cc2)C(=O)N1C1CCCC1 | 512 (≈ 1270 µM) |
| C=C1OC(=O)C(CNC(=O)c2cccc(Br)c2)=C1c1ccc(F)cc1 | > 512 |
| C=C1C(c2ccc(F)cc2)=C(CNC(=O)c2ccc(C)cc2)C(=O)N1CC | 512 (≈ 1400 µM) |
| C=C1OC(=O)C(CNC(=O)c2ccc(C)cc2)=C1c1cccc(C(F)(F)F)c1 | > 512 |
| C=C1OC(=O)C(CNC(=O)CCCCCCCCC)=C1c1ccc(F)cc1 | > 512 |
| C=C1OC(=O)C(CNC(=O)c2ccccc2Cl)=C1c1ccc(F)cc1 | > 512 |
| C=C1OC(=O)C(CNC(=O)c2ccc(C)cc2)=C1c1ccccc1Cl | > 512 |
| C=C1C(c2ccc(F)cc2)=C(CNC(=O)c2ccc(C)cc2)C(=O)N1CCCC | > 512 |
| C=C1OC(=O)C(CNC(=O)c2ccc(C)cc2)=C1c1ccc(Br)cc1 | > 512 |
| C=C1C(c2ccc(F)cc2)=C(CNC(=O)c2ccc(C)cc2)C(=O)N1c1cccc(Cl)c1 | 512 (≈ 1150 µM) |
